Experimental data published in patent publication US10494346B2, “Substituted pyrimidine-4-carboxylic acids having anticancer activity” (KOREA INSTITUTE OF SCIENCE AND TECHNOLOGY, priority 2016, dated 2019).

Key:
[1] = test system: KDM5A-overexpressed breast cancer cells, MCF7; assay: Growth inhibitory activity on KDM5A-overexpressed cell lines (MCF7), single concentration; assay type: cell-based; details: Homo sapiens; MCF7, single concentration 10 μM; read-out: Growth inhibitory activity at 10 μM (inhibition proportion %)
Description: The compound of the present invention was treated at a single concentration with KDM5A-overexpressed breast cancer cells, MCF7, and growth inhibitory activity was measured as an inhibition proportion (%).

[2] = test system: A549 lung cancer cell line; assay: Inhibitory activity on cancer cell proliferation, A549; assay type: cell-based; details: Homo sapiens
Description: (§1) The following test was conducted to identify whether the compound of the present invention has inhibitory activity on cancer cell proliferation.
(§2) The cancer cells herein used were lung cancer cell lines (NCI-H1299, A549) and breast cancer cell lines (MDA-MB-231).
(§3) Specifically, the NCI-H1299 cells were large cell lung carcinoma cell lines derived from human lung cancer tissues, and the MDA-MB231 cells were cell lines derived from human breast cancer tissues and obtained from the Korean cell line bank (KNCC, Seoul university), which were used for tests after passage culture. The NCI-H1299 and MDA-MB231 cell lines were cultured in a RPMI1640 medium supplemented with 10% FBS (fetal bovine serum), and were washed with buffered saline (PBS, pH 7.4), when the cells were proliferated on a plate at an affluence of 70 to 80%, and isolated into single cells using a 0.05% trypsin-EDTA (welgene) solution, and then passage-cultured at 1×10e6 cells/mL which were used for the test. […] After 72 hours, absorbance was measured using a CellTiter-Glo® Luminescent Cell Viability Assay (Promega) and an Envision 2103 multilabel reader (PerkinElmer). At this time, cells treated only with dimethylsulfoxide (DMSO) were used as the control group and relative viability (%) was calculated, based on 100% of the control group. […]

[3] = test system: MDA-MB-231 breast cancer cell line; assay: Inhibitory activity on cancer cell proliferation, MDA-MB-231 (CellTiter-Glo, 72 hours); assay type: cell-based; details: Homo sapiens; MDA-MB-231, 72 hours
Description: as §1, §2
Specifically, the NCI-H1299 cells were large cell lung carcinoma cell lines derived from human lung cancer tissues, and the MDA-MB231 cells were cell lines derived from human breast cancer tissues and obtained from the Korean cell line bank (KNCC, Seoul university), which were used for tests after passage culture. The NCI-H1299 and MDA-MB231 cell lines were cultured in a RPMI1640 medium supplemented with 10% FBS (fetal bovine serum), and were washed with buffered saline (PBS, pH 7.4), when the cells were proliferated on a plate at an affluence of 70 to 80%, and isolated into single cells using a 0.05% trypsin-EDTA (welgene) solution, and then passage-cultured at 1×10e6 cells/mL which were used for the test. 100 μL of NCI-H1299 and 100 μL of MDA-MB231 were seeded on a 96-well plate at 2×10e4 cells/mL, and 5×10e4 cells/mL, respectively, stabilized in the presence of CO2 for 12 hours or longer, and then treated at different concentrations with the subject compound. After 72 hours, absorbance was measured using a CellTiter-Glo® Luminescent Cell Viability Assay (Promega) and an Envision 2103 multilabel reader (PerkinElmer). At this time, cells treated only with dimethylsulfoxide (DMSO) were used as the control group and relative viability (%) was calculated, based on 100% of the control group. GI50 was obtained using Graph PRISM 6 software.

NCI-H1299 cells = assay: Inhibitory activity on cancer cell proliferation, NCI-H1299 (CellTiter-Glo, 72 hours); assay type: cell-based; details: Homo sapiens; NCI-H1299, 72 hours
Description: as §1, §2, §3

[4] = molecular target: KDM5A (lysine demethylase 5A) (Homo sapiens, UniProt P29375); assay: Inhibitory activity against histone demethylase (in vitro IC50); assay type: biochemical
Description: Inhibitory activity against histone demethylase of the compound of the present invention was evaluated.

KDM5A (lysine demethylase 5A), sequence (P29375 whole entry, species assumed): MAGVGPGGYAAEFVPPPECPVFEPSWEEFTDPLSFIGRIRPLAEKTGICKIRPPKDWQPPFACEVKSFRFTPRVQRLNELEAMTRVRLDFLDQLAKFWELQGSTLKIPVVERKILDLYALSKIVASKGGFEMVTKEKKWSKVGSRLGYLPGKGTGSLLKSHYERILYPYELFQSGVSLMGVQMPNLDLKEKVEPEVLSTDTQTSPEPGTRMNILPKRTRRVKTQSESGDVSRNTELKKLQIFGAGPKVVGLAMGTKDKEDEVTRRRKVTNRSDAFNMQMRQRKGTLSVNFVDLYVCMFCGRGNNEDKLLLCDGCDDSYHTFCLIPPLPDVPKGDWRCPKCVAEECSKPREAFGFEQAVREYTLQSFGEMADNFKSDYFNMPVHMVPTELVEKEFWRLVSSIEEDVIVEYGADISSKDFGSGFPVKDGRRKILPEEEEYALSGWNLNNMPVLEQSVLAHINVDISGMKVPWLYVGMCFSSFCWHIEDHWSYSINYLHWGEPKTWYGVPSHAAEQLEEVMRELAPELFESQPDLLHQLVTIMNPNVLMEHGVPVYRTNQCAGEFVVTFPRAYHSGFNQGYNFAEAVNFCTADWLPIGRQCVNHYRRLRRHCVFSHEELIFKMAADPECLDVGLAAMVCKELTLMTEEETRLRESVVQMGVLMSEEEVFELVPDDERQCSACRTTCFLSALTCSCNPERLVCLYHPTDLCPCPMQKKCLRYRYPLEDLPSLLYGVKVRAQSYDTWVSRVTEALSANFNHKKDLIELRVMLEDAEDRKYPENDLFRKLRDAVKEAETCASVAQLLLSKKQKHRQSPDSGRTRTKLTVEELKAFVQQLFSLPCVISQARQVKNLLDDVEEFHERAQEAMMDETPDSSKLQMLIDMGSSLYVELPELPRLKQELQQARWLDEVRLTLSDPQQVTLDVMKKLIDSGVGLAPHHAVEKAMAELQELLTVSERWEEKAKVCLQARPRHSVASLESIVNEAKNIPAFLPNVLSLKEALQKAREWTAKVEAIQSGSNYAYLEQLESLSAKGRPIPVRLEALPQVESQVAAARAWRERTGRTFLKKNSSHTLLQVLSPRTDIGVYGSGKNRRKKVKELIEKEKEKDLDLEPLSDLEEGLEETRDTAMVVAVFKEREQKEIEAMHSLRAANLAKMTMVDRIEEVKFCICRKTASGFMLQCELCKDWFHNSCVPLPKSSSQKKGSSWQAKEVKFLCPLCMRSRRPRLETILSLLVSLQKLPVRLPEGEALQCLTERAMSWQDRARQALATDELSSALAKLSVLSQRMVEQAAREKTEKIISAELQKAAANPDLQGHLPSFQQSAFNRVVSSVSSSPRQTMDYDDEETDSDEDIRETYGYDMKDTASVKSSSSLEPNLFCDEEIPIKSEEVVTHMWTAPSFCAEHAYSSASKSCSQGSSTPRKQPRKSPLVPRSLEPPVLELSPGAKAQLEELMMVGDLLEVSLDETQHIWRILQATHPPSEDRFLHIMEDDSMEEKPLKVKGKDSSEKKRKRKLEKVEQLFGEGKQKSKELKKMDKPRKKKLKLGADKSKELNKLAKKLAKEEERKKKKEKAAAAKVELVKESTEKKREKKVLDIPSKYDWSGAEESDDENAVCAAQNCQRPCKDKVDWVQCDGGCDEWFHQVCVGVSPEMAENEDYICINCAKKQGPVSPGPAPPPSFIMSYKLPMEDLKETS

GI50 [3] | Compound | also measured
10 to 100 µM | O=C(O)c1ncncc1NCc1ccc(Cl)c(Cl)c1 [Example 3, 5-((3,4-dichlorobenzyl)amino)pyrimidine-4-carboxylic Acid] | GI50 [2]: 10 to 100 µM
10 to 100 µM | O=C(O)c1ncncc1NCc1ccc(F)cc1 [Example 6, 5-((4-fluorobenzyl)amino)pyrimidine-4-carboxylic Acid] | 

The next lines start with the compound.

Compound | GI50 [3] | also measured
O=C(O)c1ncncc1NCc1ccc(-c2ccccc2)cc1 [Example 1, 5-(([1,1′-biphenyl]-4-ylmethyl)amino)pyrimidine-4-carboxylic Acid] |  | inhibition at 10 µM [1]: 40 to 80%
O=C(O)c1ncncc1NCc1cc(C(F)(F)F)cc(C(F)(F)F)c1 [Example 7, 5-((3,5-bis(trifluoromethyl)benzyl)amino)pyrimidine-4-carboxylic Acid] | 10 to 100 µM | 
Cc1ccc(CNc2cncnc2C(=O)O)cc1 [Example 9, 5-((4-methylbenzyl)amino)pyrimidine-4-carboxylic Acid] | 10 to 100 µM | 
O=C(O)c1ncncc1NCc1cccc(F)c1 [Example 10, 5-((3-fluorobenzyl)amino)pyrimidine-4-carboxylic Acid] |  | GI50 (NCI-H1299 cells): < 10 µM
CCCn1nc(Nc2cncnc2C(=O)O)c2ccccc21 [Example 12, 5-((1-propyl-1H-indazol-3-yl)amino)pyrimidine-4-carboxylic Acid] | 10 to 100 µM | IC50 [4]: < 3 µM; GI50 [2]: 10 to 100 µM
